Laboratory results taken from patent publication US9422285B2, “Substituted pyrazolo[1,5-A]-pyridine-3-carboxamides and use thereof” (Bayer Pharma Aktiengesellschaft, priority 2014, dated 2016).

target: T1, recombinant guanylate cyclase reporter cell line (Rattus norvegicus, UniProt P19686+P20595); assay: Effect on a recombinant guanylate cyclase reporter cell line (B-2); assay type: cell-based; details: in some cases mean values for individual determinations
T1 construct: expressed in transfected cells
T1 sequence (P19686 1-690): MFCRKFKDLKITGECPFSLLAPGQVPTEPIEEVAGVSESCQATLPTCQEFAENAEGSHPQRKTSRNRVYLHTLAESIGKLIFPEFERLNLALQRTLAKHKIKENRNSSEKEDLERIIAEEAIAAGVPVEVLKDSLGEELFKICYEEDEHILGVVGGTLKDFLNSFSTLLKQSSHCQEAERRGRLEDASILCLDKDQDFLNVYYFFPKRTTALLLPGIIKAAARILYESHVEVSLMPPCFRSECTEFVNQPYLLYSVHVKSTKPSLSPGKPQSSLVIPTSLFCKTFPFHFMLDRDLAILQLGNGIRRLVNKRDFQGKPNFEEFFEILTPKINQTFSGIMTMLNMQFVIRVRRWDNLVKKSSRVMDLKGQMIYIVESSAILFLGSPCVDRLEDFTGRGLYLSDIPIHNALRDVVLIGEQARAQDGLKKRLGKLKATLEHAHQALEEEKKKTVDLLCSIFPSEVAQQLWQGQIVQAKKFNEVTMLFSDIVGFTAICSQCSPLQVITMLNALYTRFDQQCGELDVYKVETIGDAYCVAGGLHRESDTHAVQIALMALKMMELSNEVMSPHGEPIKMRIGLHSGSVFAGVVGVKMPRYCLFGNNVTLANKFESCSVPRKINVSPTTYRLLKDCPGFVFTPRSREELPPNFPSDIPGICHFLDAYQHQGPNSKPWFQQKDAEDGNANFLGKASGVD
T1 sequence (P20595 1-619): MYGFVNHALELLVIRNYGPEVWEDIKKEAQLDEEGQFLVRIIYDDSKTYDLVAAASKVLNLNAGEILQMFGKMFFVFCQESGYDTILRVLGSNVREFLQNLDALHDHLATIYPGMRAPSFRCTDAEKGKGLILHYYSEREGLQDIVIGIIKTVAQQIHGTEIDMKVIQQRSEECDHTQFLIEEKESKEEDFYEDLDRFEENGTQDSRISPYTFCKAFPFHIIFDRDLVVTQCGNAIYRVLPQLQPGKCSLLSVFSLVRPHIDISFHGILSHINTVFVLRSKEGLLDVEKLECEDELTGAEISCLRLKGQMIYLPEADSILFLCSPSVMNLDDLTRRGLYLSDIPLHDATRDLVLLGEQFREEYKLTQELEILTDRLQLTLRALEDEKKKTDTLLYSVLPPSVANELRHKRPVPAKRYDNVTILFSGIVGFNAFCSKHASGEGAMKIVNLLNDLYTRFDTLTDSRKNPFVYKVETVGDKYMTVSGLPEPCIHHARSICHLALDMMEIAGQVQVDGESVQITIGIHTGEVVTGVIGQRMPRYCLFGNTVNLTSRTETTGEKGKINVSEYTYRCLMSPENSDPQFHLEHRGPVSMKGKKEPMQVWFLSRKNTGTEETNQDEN
Protocol: B-2. Effect on a Recombinant Guanylate Cyclase Reporter Cell Line
The cellular effect of the inventive compounds is determined using a recombinant guanylate cyclase reporter cell line, as described in F. Wunder et al., Anal. Biochem. 339, 104-112 (2005).
Representative MEC values (MEC=minimum effective concentration) for the inventive compounds are shown in the table below (in some cases as mean values for individual determinations): […]

Row | MEC (minimum effective concentration) [µM] | SMILES
1 | 0.3 | CC=CCC(N)CNC(=O)c1c(C)nn2c(OCc3c(F)cccc3F)cc(C)cc12 (racemic) [Example 115, rac-N-[2-Aminohex-4-en-1-yl]-7-[(2,6-difluorobenzyl)oxy]-2,5-dimethylpyrazolo[1,5-a]pyridine-3-carboxamide]
2 | 3.0 | Cc1cc(OCc2c(F)cccc2F)n2nc(C)c(C(=O)NCC(N)c3cccc(OC(F)F)c3)c2c1 (racemic) [Example 116, rac-N-{2-Amino-2-[3-(difluoromethoxy)phenyl]ethyl}-7-[(2,6-difluorobenzyl)oxy]-2,5-dimethylpyrazolo[1,5-a]pyridine-3-carboxamide]
3 | 1.0 | Cc1cc(OCc2c(F)cccc2F)n2nc(C)c(C(=O)NC(CN)c3ccc4c(c3)OCO4)c2c1 (racemic) [Example 120, rac-N-[2-Amino-1-(1,3-benzodioxol-5-yl)ethyl]-7-[(2,6-difluorobenzyl)oxy]-2,5-dimethylpyrazolo[1,5-a]pyridine-3-carboxamide]
4 | 1.0 | COc1cccc(C(CN)NC(=O)c2c(C)nn3c(OCc4c(F)cccc4F)cc(C)cc23)c1 (racemic) [Example 123, rac-N-[2-Amino-1-(3-methoxyphenyl)ethyl]-7-[(2,6-difluorobenzyl)oxy]-2,5-dimethylpyrazolo[1,5-a]pyridine-3-carboxamide]
5 | 1.0 | Cc1cc(OCc2c(F)cccc2F)n2nc(C)c(C(=O)NC(CN)c3cccc(Br)c3)c2c1 (racemic) [Example 126, rac-N-[2-Amino-1-(3-bromphenyl)ethyl]-7-[(2,6-difluorobenzyl)oxy]-2,5-dimethylpyrazolo[1,5-a]pyridine-3-carboxamide]
6 | 0.3 | Cc1cc(OCc2c(F)cccc2F)n2nc(C)c(C(=O)NC3CCCCNC3)c2c1 (racemic) [Example 127, rac-N-(Azepan-3-yl)-7-[(2,6-difluorobenzyl)oxy]-2,5-dimethylpyrazolo[1,5-a]pyridine-3-carboxamide]
7 | 3.0 | Cc1cc(OCc2c(F)cccc2F)n2nc(C)c(C(=O)NC3CCC(N)C3)c2c1 (racemic) [Example 130, rac-N-(3-Aminocyclopentyl)-7-[(2,6-difluorobenzyl)oxy]-2,5-dimethylpyrazolo[1,5-a]pyridine-3-carboxamide]
8 | 1.0 | Cc1cc(OCc2c(F)cccc2F)n2nc(C)c(C(=O)NC(CN)c3cccc(OC(F)(F)F)c3)c2c1 (racemic) [Example 132, rac-N-{2-Amino-1-[3-(trifluoromethoxy)phenyl]ethyl}-7-[(2,6-difluorobenzyl)oxy]-2,5-dimethylpyrazolo[1,5-a]pyridine-3-carboxamide]

The next lines start with the compound.

Row | SMILES | MEC (minimum effective concentration) [µM]
9 | COCC(C)(N)CNC(=O)c1c(C)nn2c(OCc3c(F)cccc3F)cc(C)cc12 (racemic) [Example 97, rac-N-(2-Amino-3-methoxy-2-methylpropyl)-7-[(2,6-difluorobenzyl)oxy]-2,5-dimethylpyrazolo[1,5-a]pyridine-3-carboxamide] | 1.0
10 | COc1ccc(CC(C)(N)CNC(=O)c2c(C)nn3c(OCc4c(F)cccc4F)cc(C)cc23)cc1 (racemic) [Example 99, rac-N-[2-Amino-3-(4-methoxyphenyl)-2-methylpropyl]-7-[(2,6-difluorobenzyl)oxy]-2,5-dimethylpyrazolo[1,5-a]pyridine-3-carboxamide] | 0.1
11 | Cc1cc(OCc2c(F)cccc2F)n2nc(C)c(C(=O)NCC3CNC(=O)O3)c2c1 (racemic) [Example 100, rac-7-[(2,6-Difluorobenzyl)oxy]-2,5-dimethyl-N-[(2-oxo-1,3-oxazolidin-5-yl)methyl]pyrazolo[1,5-a]pyridine-3-carboxamide] | 10
12 | COc1ccc2c(c1)C(NC(=O)c1c(C)nn3c(OCc4c(F)cccc4F)cc(C)cc13)CCN2 (racemic) [Example 102, rac-7-[(2,6-Difluorobenzyl)oxy]-N-(6-methoxy-1,2,3,4-tetrahydroquinolin-4-yl)-2,5-dimethylpyrazolo[1,5-a]pyridine-3-carboxamide] | 1.0
13 | Cc1cc(OCc2c(F)cccc2F)n2nc(C)c(C(=O)NCC(N)c3ccc4ncccc4c3)c2c1 (racemic) [Example 103, rac-N-[2-Amino-2-(quinolin-6-yl)ethyl]-7-[(2,6-difluorobenzyl)oxy]-2,5-dimethylpyrazolo[1,5-a]pyridine-3-carboxamide] | 10
14 | Cc1cc(OCc2c(F)cccc2F)n2nc(C)c(C(=O)NCC(N)c3ccc(C)o3)c2c1 (racemic) [Example 104, rac-N-[2-Amino-2-(5-methyl-2-furyl)ethyl]-7-[(2,6-difluorobenzyl)oxy]-2,5-dimethylpyrazolo[1,5-a]pyridine-3-carboxamide] | 3.0
15 | Cc1cc(OCc2c(F)cccc2F)n2nc(C)c(C(=O)NCC(N)c3cccc(C(F)(F)F)c3)c2c1 (racemic) [Example 105, rac-N-{2-Amino-2-[3-(trifluoromethyl)phenyl]ethyl}-7-[(2,6-difluorobenzyl)oxy]-2,5-dimethylpyrazolo[1,5-a]pyridine-3-carboxamide] | 3.0
16 | Cc1cc(OCc2c(F)cccc2F)n2nc(C)c(C(=O)NCC(N)CC(F)(F)F)c2c1 (racemic) [Example 107, rac-N-(2-Amino-4,4,4-trifluorobutyl)-7-[(2,6-difluorobenzyl)oxy]-2,5-dimethylpyrazolo[1,5-a]pyridine-3-carboxamide] | 3.0
17 | Cc1cc(OCc2c(F)cccc2F)n2nc(C)c(C(=O)NC3COc4ccccc43)c2c1 (racemic) [Example 108, rac-7-[(2,6-Difluorobenzyl)oxy]-N-(2,3-dihydro-1-benzofur-3-yl)-2,5-dimethylpyrazolo[1,5-a]pyridine-3-carboxamide] | 0.3
18 | Cc1cc(OCc2c(F)cccc2F)n2nc(C)c(C(=O)NCC(C)(N)C(F)(F)F)c2c1 (racemic) [Example 109, rac-N-(2-Amino-3,3,3-trifluoro-2-methylpropyl)-7-[(2,6-difluorobenzyl)oxy]-2,5-dimethylpyrazolo[1,5-a]pyridine-3-carboxamide] | 1.0
19 | Cc1cc(OCc2c(F)cccc2F)n2nc(C)c(C(=O)NCC(N)c3ccc4c(c3)OCCO4)c2c1 (racemic) [Example 110, rac-N-[2-Amino-2-(2,3-dihydro-1,4-benzodioxin-6-yl)ethyl]-7-[(2,6-difluorobenzyl)oxy]-2,5-dimethylpyrazolo[1,5-a]pyridine-3-carboxamide] | 3.0
20 | Cc1cc(OCc2c(F)cccc2F)n2nc(C)c(C(=O)NCC(N)c3csc4ccccc34)c2c1 (racemic) [Example 112, rac-N-[2-Amino-2-(1-benzothiophen-3-yl)ethyl]-7-[(2,6-difluorobenzyl)oxy]-2,5-dimethylpyrazolo[1,5-a]pyridine-3-carboxamide] | 10
21 | COC(=O)c1cccc(C(N)CNC(=O)c2c(C)nn3c(OCc4c(F)cccc4F)cc(C)cc23)c1 (racemic) [Example 114, rac-Methyl 3-{1-amino-2-[({7-[(2,6-difluorobenzyl)oxy]-2,5-dimethylpyrazolo[1,5-a]pyridin-3-yl}carbonyl)amino]ethyl}benzoate] | 10
